Laboratory results from ChEMBL document CHEMBL1201862, “PubChem BioAssay data set” (2004).
The source made the active and inactive calls.

Experiments:
[1] = target: T1, Mannose-6-phosphate isomerase (Homo sapiens, UniProt P34949); test: human PMI inhibitors, high substrate, primary screen, biochemical, fluorescence intensity, high mannose 6-phosphate (AID 1220)
T1 sequence (P34949 whole entry): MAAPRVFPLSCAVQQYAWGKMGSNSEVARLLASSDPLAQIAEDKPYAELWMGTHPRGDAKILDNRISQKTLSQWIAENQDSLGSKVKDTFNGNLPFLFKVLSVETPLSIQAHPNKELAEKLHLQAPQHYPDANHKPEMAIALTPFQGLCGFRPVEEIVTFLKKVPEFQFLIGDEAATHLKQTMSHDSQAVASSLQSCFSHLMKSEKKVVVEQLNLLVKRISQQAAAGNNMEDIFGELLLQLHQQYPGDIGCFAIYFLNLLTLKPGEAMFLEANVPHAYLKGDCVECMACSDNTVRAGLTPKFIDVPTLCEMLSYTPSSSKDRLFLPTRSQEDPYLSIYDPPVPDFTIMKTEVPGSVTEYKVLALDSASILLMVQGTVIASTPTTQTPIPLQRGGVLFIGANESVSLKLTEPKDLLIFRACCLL

ORF 73 = target: T2, ORF 73 (Human herpesvirus 8, UniProt O40947); test: inhibitors of C-LANA binding to LBS DNA, dose response, biochemical, fluorescence polarization, cherry-picked samples (AID 504725); design: species or system Human gammaherpesvirus 8;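 note: fluorescence polarization of a labeled DNA duplex reporting LANA DNA binding; potency is for inhibitors that block LANA binding to the DNA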
T2 sequence (O40947 whole entry): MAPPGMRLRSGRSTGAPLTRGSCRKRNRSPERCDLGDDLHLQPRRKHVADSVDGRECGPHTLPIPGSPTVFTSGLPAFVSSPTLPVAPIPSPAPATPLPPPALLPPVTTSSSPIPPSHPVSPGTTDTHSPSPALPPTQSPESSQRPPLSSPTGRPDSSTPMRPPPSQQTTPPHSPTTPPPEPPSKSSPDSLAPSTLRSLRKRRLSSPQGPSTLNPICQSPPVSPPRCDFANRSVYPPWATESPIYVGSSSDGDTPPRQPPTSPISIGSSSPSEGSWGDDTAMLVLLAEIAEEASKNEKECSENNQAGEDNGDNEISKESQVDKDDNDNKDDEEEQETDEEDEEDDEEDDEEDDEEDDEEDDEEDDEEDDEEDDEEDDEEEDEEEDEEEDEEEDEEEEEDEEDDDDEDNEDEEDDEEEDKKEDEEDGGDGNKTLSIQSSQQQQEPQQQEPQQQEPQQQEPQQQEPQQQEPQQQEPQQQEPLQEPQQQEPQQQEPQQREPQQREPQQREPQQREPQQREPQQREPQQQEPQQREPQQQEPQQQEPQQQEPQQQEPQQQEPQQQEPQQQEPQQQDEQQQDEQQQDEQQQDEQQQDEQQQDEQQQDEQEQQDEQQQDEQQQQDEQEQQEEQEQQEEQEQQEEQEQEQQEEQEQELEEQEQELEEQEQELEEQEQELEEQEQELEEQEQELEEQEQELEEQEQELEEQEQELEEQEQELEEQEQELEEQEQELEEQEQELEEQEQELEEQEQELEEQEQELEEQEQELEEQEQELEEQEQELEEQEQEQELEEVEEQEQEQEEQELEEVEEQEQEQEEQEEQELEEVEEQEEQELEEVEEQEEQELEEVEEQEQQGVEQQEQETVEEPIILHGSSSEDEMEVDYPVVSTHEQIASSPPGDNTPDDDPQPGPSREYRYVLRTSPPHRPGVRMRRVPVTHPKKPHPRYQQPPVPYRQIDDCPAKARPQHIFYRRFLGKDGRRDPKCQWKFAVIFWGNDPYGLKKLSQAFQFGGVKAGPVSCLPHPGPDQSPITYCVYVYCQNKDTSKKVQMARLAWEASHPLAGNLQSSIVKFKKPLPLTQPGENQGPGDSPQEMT

Keap1/Nrf2 = Keap1/Nrf2 (Homo sapiens, UniProt Q14145); test: Keap1-Nrf2 protein-protein interaction inhibitors, dose response, biochemical, fluorescence polarization, cherry-picked samples (AID 588683)
[2] = target: Voltage-dependent T-type calcium channel subunit alpha-1H (Homo sapiens, UniProt O95180); format: functional;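 note: channel activity triggered by adding a high calcium stimulation buffer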
HEK293 [3] = test: cells; settings: Homo sapiens
HEK293 [4] = test: cells; settings: Homo sapiens; remark: listed apart in the source
[5] = target: T1, Mannose-6-phosphate isomerase; test: PMI enzyme inhibitors, confirmation, biochemical, fluorescence intensity (AID 1535)
[6] = target: T3, Heat shock factor protein 1 (Mus musculus, UniProt P38532); test: inhibition of MG132-induced HSE-luciferase signal, confirmation, cell-based, NIH3T3, luminescence, dose retest (AID 2382); format: functional;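 note: NIH3T3 fibroblasts with HSF1-driven luciferase reporter stressed by proteasome inhibitor MG132; luminescence from HSF1-driven luciferase expression after 8 hours of MG132 stress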
T3 sequence (P38532 whole entry): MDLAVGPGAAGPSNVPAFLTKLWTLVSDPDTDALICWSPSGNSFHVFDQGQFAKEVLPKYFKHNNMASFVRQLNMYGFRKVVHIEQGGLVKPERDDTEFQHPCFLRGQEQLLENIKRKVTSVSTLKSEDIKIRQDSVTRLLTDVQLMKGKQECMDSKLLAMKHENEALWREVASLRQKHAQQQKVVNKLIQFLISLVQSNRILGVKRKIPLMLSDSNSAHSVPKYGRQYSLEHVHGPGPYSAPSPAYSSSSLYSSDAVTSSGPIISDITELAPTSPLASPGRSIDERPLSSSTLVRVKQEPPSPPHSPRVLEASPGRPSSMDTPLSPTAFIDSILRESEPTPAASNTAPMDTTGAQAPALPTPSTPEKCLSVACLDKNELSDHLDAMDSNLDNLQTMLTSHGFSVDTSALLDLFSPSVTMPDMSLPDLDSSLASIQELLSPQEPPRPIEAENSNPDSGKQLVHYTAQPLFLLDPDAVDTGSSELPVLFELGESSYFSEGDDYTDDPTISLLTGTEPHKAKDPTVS

Exodeoxyribonuclease V = target: T4, Exodeoxyribonuclease V (Escherichia coli (strain K12), UniProt P04993+P07648+P08394); test: E. coli RecBCD inhibitors, dose response, counter-screen for AddAB inhibitor project, absorbance, V66 E. coli, mutant T4 phage (AID 492957); format: functional, cell-based, Escherichia coli str. K-12 substr. MG1655
T4 sequence (P04993 whole entry): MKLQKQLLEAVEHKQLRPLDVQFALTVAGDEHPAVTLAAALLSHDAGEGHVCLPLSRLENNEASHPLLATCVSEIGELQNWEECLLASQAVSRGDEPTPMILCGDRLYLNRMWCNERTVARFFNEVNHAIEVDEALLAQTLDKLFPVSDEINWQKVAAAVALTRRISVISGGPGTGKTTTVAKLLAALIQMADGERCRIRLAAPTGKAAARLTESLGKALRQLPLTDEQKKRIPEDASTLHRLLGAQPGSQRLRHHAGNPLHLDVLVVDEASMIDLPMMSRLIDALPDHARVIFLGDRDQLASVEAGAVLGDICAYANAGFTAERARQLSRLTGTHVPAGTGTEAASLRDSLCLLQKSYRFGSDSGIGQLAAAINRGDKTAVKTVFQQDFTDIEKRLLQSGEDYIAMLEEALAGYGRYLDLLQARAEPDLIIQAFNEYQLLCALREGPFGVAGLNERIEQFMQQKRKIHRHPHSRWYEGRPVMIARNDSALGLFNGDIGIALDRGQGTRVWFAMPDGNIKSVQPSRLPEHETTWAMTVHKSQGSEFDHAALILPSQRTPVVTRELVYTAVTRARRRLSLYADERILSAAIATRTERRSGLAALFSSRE
T4 sequence (P07648 whole entry): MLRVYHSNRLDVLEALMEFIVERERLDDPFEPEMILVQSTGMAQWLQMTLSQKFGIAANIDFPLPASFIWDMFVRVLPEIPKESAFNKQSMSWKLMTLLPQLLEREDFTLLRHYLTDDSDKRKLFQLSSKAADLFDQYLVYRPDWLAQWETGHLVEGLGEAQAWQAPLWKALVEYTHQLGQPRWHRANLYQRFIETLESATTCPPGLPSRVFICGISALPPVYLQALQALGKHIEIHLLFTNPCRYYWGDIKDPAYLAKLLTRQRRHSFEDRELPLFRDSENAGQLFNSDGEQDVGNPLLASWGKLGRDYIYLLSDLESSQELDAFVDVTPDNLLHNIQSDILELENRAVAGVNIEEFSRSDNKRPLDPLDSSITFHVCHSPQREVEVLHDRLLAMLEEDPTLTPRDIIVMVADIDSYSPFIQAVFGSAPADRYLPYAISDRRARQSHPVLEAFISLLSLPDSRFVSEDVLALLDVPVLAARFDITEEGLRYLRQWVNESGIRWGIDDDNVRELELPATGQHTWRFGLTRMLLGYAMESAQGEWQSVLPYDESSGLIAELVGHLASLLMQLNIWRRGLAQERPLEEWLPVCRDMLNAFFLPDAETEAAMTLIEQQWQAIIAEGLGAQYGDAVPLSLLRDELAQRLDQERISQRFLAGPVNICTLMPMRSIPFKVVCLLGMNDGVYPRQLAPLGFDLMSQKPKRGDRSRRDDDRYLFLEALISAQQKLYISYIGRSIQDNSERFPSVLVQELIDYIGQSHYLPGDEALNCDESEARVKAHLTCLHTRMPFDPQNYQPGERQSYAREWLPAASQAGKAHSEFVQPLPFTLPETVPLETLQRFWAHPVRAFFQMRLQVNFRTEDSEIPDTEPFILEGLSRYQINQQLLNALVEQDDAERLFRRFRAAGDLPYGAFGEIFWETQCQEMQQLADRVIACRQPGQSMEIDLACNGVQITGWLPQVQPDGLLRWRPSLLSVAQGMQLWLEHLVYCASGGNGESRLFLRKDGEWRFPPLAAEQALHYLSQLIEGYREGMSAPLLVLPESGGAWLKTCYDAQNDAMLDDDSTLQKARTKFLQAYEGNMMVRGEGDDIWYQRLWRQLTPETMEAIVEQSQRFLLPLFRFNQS
T4 sequence (P08394 whole entry): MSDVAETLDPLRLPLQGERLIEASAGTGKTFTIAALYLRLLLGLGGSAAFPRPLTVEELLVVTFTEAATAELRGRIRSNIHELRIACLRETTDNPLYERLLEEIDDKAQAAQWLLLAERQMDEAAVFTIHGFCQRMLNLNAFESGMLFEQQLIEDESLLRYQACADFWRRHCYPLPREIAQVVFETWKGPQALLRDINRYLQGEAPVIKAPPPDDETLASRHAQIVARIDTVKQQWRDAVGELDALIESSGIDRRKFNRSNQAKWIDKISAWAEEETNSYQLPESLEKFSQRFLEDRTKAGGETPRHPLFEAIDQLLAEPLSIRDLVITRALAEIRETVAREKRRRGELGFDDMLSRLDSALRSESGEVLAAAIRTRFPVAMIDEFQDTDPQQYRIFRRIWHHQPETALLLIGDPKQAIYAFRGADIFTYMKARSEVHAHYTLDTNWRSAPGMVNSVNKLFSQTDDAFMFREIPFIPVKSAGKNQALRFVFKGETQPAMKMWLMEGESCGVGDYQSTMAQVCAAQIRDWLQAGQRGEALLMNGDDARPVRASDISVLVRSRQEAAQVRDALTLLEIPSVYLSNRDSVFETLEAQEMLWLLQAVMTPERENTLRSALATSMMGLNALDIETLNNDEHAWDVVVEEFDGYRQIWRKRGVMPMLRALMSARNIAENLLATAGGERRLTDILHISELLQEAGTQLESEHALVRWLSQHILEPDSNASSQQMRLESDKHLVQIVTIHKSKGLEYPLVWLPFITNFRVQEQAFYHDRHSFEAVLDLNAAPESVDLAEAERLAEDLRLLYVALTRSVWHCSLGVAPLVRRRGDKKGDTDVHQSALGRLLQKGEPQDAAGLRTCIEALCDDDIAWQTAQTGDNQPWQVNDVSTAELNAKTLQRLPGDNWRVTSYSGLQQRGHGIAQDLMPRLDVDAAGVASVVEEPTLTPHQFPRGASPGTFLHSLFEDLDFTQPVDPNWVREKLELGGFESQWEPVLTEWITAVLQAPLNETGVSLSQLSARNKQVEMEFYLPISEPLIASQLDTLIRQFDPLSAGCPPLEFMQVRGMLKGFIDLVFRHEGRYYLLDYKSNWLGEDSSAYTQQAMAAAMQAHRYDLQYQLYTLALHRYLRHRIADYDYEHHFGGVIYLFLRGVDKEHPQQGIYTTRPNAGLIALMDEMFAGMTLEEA

[7] = Counterscreen for AddAB inhibitors: absorbance-based bacterial cell-based high throughput dose response assay for inhibitors of bacterial viability. [Related pubchem assays (depositor defined):AID435030, AID449728, AID449731, AID488942, AID488955, AID488956]; format: functional
[8] = microbe, parasite or virus in culture; format: functional; settings: Mycobacterium tuberculosis
[9] = target: T5, Ubiquitin-conjugating enzyme E2 N (Homo sapiens, UniProt P61088); format: functional;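 note: Dose-response confirmation in a TR-FRET assay detecting UBC13-driven polyubiquitin chain formation, inhibition measured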
T5 sequence (P61088 whole entry): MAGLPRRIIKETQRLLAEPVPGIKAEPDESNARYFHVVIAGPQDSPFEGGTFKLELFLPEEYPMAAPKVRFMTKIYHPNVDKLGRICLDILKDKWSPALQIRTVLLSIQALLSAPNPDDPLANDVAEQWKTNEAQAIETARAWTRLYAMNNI

Vero [10] = test: cells; format: functional, cell-based; settings: Chlorocebus sabaeus
Vero [11] = test: cells; format: functional; settings: Chlorocebus sabaeus

Keap1/Nrf2, sequence (Q16236 whole entry): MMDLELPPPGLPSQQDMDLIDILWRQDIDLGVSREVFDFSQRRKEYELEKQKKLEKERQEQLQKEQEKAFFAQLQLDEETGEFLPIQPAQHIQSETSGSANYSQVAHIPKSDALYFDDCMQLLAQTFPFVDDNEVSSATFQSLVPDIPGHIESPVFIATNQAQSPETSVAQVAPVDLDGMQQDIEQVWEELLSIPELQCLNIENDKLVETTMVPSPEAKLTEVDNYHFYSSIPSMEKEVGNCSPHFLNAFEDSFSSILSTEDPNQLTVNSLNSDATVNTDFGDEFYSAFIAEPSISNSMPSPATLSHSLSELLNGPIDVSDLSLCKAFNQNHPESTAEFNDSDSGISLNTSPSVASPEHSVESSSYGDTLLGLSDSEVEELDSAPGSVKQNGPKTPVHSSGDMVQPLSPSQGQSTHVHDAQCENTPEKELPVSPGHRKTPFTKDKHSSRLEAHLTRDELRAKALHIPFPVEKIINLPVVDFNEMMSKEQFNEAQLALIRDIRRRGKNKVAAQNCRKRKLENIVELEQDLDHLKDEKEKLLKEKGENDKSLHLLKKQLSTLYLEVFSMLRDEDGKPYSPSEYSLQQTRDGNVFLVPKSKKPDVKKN
Keap1/Nrf2, sequence (Q14145 whole entry): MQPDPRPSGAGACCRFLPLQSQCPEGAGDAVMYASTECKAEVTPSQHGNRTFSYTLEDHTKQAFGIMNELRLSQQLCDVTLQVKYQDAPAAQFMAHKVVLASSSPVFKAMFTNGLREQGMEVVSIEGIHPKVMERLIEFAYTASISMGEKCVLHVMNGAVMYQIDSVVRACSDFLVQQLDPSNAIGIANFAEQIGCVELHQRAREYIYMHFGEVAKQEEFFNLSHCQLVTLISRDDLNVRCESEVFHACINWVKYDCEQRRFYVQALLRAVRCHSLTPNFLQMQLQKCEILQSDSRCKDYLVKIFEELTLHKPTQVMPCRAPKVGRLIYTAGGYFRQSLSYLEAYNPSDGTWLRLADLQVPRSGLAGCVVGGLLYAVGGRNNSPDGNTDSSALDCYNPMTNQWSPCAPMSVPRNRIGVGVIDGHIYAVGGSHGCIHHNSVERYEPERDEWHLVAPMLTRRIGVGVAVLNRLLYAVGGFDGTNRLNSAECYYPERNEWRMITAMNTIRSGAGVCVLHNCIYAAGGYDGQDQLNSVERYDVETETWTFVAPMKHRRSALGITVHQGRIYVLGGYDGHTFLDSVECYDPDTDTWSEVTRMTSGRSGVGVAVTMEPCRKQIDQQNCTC
Voltage-dependent T-type calcium channel subunit alpha-1H, sequence (O95180 whole entry): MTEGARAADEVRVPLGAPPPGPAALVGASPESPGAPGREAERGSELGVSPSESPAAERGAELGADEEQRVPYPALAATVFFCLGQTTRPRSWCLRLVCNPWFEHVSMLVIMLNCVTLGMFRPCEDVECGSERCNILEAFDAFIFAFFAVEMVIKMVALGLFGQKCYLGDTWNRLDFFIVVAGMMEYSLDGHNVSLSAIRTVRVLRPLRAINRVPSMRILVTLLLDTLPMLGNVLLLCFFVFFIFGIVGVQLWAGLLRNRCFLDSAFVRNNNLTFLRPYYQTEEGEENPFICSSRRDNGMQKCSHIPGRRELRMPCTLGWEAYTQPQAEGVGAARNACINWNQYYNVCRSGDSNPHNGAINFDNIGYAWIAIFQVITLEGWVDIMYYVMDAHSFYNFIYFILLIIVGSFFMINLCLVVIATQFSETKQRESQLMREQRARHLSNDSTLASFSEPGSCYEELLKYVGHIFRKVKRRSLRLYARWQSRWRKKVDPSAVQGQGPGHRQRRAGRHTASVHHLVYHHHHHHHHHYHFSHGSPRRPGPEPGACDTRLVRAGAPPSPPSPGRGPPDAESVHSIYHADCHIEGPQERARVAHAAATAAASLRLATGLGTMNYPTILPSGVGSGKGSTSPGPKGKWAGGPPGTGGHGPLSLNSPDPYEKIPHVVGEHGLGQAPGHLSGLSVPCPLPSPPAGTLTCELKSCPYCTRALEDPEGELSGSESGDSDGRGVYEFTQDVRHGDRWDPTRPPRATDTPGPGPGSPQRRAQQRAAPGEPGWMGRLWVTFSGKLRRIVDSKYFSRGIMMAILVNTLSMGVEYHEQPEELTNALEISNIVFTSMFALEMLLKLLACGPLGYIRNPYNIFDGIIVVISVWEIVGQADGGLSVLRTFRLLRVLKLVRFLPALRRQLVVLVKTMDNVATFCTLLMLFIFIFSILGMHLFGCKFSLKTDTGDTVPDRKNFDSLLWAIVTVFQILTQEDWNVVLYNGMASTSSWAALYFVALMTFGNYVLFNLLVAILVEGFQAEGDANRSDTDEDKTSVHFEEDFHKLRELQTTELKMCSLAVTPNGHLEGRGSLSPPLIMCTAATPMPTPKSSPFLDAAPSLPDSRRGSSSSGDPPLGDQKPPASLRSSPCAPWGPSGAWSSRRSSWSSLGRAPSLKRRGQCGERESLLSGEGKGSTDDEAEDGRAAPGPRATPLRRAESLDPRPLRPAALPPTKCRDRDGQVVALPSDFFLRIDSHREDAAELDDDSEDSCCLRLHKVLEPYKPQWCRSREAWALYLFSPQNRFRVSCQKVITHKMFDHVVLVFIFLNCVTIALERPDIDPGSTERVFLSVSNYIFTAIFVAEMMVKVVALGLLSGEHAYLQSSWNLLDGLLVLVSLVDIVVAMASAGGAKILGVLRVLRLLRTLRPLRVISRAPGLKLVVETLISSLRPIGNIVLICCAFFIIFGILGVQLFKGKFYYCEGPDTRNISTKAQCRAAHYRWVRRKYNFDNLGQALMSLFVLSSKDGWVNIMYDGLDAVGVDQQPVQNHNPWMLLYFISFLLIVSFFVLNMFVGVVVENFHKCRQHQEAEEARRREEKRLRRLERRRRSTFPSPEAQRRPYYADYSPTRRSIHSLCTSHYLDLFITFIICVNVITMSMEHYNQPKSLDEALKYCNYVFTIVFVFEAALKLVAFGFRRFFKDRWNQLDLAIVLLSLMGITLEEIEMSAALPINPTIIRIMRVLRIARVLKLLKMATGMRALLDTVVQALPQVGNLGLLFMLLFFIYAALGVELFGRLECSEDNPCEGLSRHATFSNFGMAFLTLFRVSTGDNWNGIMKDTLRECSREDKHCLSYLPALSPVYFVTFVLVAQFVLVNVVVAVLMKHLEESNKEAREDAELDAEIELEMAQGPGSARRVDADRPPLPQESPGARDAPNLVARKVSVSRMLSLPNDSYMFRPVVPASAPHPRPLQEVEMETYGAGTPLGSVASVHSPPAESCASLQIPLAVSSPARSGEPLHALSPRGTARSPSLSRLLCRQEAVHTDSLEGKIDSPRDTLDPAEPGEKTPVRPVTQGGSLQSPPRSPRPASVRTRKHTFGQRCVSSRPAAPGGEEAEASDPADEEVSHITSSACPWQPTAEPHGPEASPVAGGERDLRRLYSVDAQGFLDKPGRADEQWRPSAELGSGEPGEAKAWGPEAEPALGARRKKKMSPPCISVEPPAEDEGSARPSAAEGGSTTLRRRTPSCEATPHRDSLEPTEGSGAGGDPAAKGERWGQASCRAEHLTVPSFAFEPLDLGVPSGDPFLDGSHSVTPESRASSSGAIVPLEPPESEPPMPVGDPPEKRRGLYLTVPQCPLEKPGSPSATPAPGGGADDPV

Question: Which IC50 [1] does the source give for Cc1cc2nc3c(=O)n(C4CCCCC4)c(=O)[nH]c3nc2cc1N here?
Answer: > 50 µM (not active)

Question: What about the AC50 (ORF 73) of the same molecule?
Answer: 27.6 µM (active)

Question: And the AC50 (Keap1/Nrf2)?
Answer: 1.92 µM (active)

Question: For CCOC(=O)C1CCCN(C(=O)C2c3ccccc3Oc3ccccc32)C1 (configuration not stated), which EC50 [2] is on record?
Answer: 38.8 µM (active)

Question: What about the AC50 (ORF 73) of the same molecule?
Answer: 127 µM (active)

Question: What about the AC50 (Keap1/Nrf2) of the same molecule?
Answer: > 52 µM (inactive)

Question: For CC(C)Cn1c(=O)[nH]c(=O)c2c(C(F)(F)F)cc(-c3ccccc3)nc21, which EC50 (HEK293 [3]) is on record?
Answer: > 59.6 µM (inactive)

Question: And the EC50 (HEK293 [4])?
Answer: > 59.6 µM (inactive)

Question: Which IC50 [5] does the source give for CCOc1nss/c1=N\c1ccc2ccccc2c1 here?
Answer: > 100 µM (inactive)

Question: With Clc1nss/c1=N\C1=NCCS1 as the molecule, how does the IC50 [5] read?
Answer: > 100 µM (inactive)

Question: With Cc1ccc(-c2oc3ccccc3c(=O)c2O)cc1 as the molecule, how does the EC50 [6] read?
Answer: > 195 µM (not active)

Question: What about the IC50 (Exodeoxyribonuclease V) of the same molecule?
Answer: > 119 µM (inactive)

Question: What about the IC50 [7] of the same molecule?
Answer: > 119 µM (inactive)

Question: With CN1CCN(CC/C=C2/c3ccccc3Sc3ccc(S(=O)(=O)N(C)C)cc32)CC1 [THIOTHIXENE] as the molecule, how does the CC50 [8] read?
Answer: > 40 µM (active)

Question: What about the IC50 [9] of the same molecule?
Answer: > 20 µM (inactive)

Question: And the IC50 (Vero [10])?
Answer: > 25 µM (active)

Question: What about the CC50 (Vero [11]) of the same molecule?
Answer: 15.2 µM (active)
